This passage reports MIC and ED5O results from patent publication US7030085B2, “Thiopeptide compounds” (Astellas Pharma INC, priority 2001, dated 2006).

Test [1] concerns Enterococcus faecium CAY09—1. Kind of test: MIC determination, standard method of the Chemotherapy Society of Japan. The test is classed as cell-based. The text has this:
(§1) The minimal inhibitory concentration (MIC) of the compounds of the invention obtained in Example 1, QN3323A, QN3323-B, QN3323-Y1, thiocillin I, thiocillin II and micrococcin P2 against Staphylococcus aureus FDA209P (S. aureus), Staphylococcus epidermidis IID866 (S. epidezmidis), Enterococcus faecalis IID682 (E. Faecalis) and Enterococcus faecium CAY09—1 (E. faecium), as well as against drug-resistant bacteria, Staphylococcus aureus CAY32001 (MRSA) (S. aureus (MRSA)) and Enterococcus faecium CAY09—2 (VRE) (E. faecium (VRE)) was measured according to the standard method of the Chemotherapy Society of Japan (CHEMOTHERAPY, 1981, 29(1):76, revised minimal inhibitory concentration (MIC) determination method). The cells of S. aureus (MRSA) were incubated at 32° C.

In test [2] the test system is Staphylococcus aureus CAY32001 (MRSA). The test is described as above. The test is classed as cell-based.
Source text: as §1

Test [3] deals with Enterococcus faecalis IID682. The test is described as above. In kind it is cell-based.
Source text: as §1

Test [4] deals with Staphylococcus aureus FDA209P. The description is as above. The test is classed as cell-based.
Source text: as §1

Test [5] concerns Enterococcus faecium CAY09—2 (VRE). The description is as above. The test is classed as cell-based.
Source text: as §1

Test [6] relates to Staphylococcus epidermidis IID866. The test is described as above. In kind it is cell-based.
Source text: as §1

In test [7] the test system is Staphylococcus aureus Smith. The test is described as follows: Remedial effect for infected mouse model. In kind it is in vivo. The note with it: male ICR(CD-1) mice infected intraabdominally with S. aureus Smith; compound subcutaneous two hours after infection; observed 4 to 7 days after treatment; probit method. As to the method: Remedial Effect for Infected Mouse Model
The compounds of the invention, QN3323-A, QN3323-B, thiocillin I and thiocillin II were tested using an infected mouse model to determine the effectivness thereof. Concretely, cells of Staphylococcus aureus Smith cultivated for 16 hours at 37° C. were suspended in 3% butamutin (by Tokyo Kasei), and the resulting cell suspension was intraabdominally infected into 4-week old male ICR(CD-1) mice (from Charles River of Japan, SPF) (about 3×10^6 CFU/mouse). Two hours after the infection, the compound of the invention dissolved in a solvent (10% DMSO, 10% HCO-60 (by Nikko Chemicals), 80% physiological saline), was subcutaneously administered to each mouse. On 4 to 7 days after the treatment, the mice were observed, and their ED50 value was calculated according to probit method.

The mark [8] stands for this setting: S. aureus CAY32001 (MRSA), incubated at 32° C.

Values after ≈ are worked out from the molar mass of the structure shown.

Regarding `C/C=C(\NC(=O)c1csc(-c2csc(-c3ccc4c(n3)-c3csc(n3)C(C(C)O)NC(=O)c3csc(n3)C(C(C)(C)O)NC(=O)c3csc(n3)/C(=C\C)NC(=O)C(C(C)O)NC(=O)c3csc-4n3)n2)n1)C(=O)NCC(C)O` (centres unmarked) [QN3323-Y1], the MIC was found to be 0.5 µg/mL (≈ 0.431 µM) in test [1]; 2 µg/mL (≈ 1.72 µM) in test [2] (Staphylococcus aureus, MRSA); 0.5 µg/mL (≈ 0.431 µM) in test [3]; 0.25 µg/mL (≈ 0.215 µM) in test [4]; 0.25 µg/mL (≈ 0.215 µM) in test [5] (Enterococcus faecium, VRE); 0.25 µg/mL (≈ 0.215 µM) in test [6].

As to `C/C=C(/NC(=O)c1csc(-c2csc(-c3ccc4c(n3)-c3csc(n3)C(C(C)OC)NC(=O)c3csc(n3)C(C(C)(C)O)NC(=O)c3csc(n3)/C(=C\C)NC(=O)C(C(C)O)NC(=O)c3csc-4n3)n2)n1)C(=O)NCC(C)O` (centres unmarked) [Thiocillin II, thiocillin II], the ED5O in test [7] stood at 2.2 mg/kg. Further, the figures for the MIC in test [2] (setting [8]) and in test [5] (E. faecium CAY09—2 (VRE)) were 0.10 µg/mL (≈ 0.0851 µM) and 0.05 µg/mL (≈ 0.0426 µM), respectively.

Turning to `C/C=C(\NC(=O)c1csc(-c2csc(-c3ccc4c(n3)-c3csc(n3)[C@H]([C@@H](C)O)NC(=O)c3csc(n3)[C@H](C(C)C)NC(=O)c3csc(n3)/C(=C/C)NC(=O)[C@H]([C@@H](C)O)NC(=O)c3csc-4n3)n2)n1)C(=O)NCC(C)=O` [Micrococcin P2, micrococcin P2], the minimum inhibitory concentration (MIC) was found to be 0.78 µg/mL (≈ 0.683 µM) in test [2] (setting [8]) and 0.2 µg/mL (≈ 0.175 µM) in test [5] (E. faecium CAY09—2 (VRE)).

In test [7], `C/C=C(\NC(=O)c1csc(-c2csc(-c3ccc4c(n3)-c3csc(n3)[C@H]([C@@H](C)O)NC(=O)c3csc(n3)[C@H](C(C)(C)O)NC(=O)c3csc(n3)/C(=C/C)NC(=O)[C@H]([C@@H](C)O)NC(=O)c3csc-4n3)n2)n1)C(=O)NC[C@@H](C)O` [Thiocillin I, thiocillin I] showed an ED5O of 1.4 mg/kg. For the same compound, the MIC in test [2] (setting [8]) and in test [5] (E. faecium CAY09—2 (VRE)) was 0.78 µg/mL (≈ 0.672 µM) throughout.
